Test system: rhesus macaque (Macaca mulatta) sperm
Test: Sperm motility in rhesus males after i.v. infusion of EP055
Assay type: in vivo
Source text: Semen was collected by direct penile stimulation with a P-T Electronics Model 303 PTE 110 Volt AC stimulator equipped with electrocardiogram pad electrodes (10–35 V, 20 ms duration, 18 pulses/sec) as previously described. Semen was collected weekly for 3 weeks to establish baseline parameters for each male. Samples were inspected visually to determine sperm motility and suitability for the study. Sperm motility data from male 28106 presented in S1 Table is representative of pre-treatment samples. Immediately after collection, the seminal plug was separated from the liquefied fraction, placed into a cryovial, flash frozen in liquid nitrogen, and stored at -80C until evaluation for drug levels. Spermatozoa were prepared by centrifugation (7 min, 200 g) of the liquid portion of the ejaculate and resuspending the sperm pellet in TALP-HEPES medium containing 0.3% bovine serum albumin at 37°C. An aliquot was taken to determine concentration using a hemocytometer, percent motility and forward progression as previously described. Baseline semen samples were collected from each male twice during the week prior to treatment. Semen was collected from each male 6–8 hr, 28–30 hr, and 78 hr post-infusion of low dose EP055 (75–80 mg/kg body weight) intravenously. After a one-week recovery period, a baseline semen sample was obtained, and the following week semen samples were collected as described above after an intravenous infusion of high dose EP055 (125–130 mg/kg).
Sperm were diluted in TALP-HEPES medium containing 0.3% bovine serum albumin to achieve 50-100 sperm per field. Videos were taken using an iPhone 6s Plus positioned 12 inches from a Dell model E170Sc 17-inch LCD monitor (1280 x 1024 pixels at 60 Hz, 0.264 mm) attached to an Olympus CK40 inverted microscope using 20x magnification (10x objective). The video camera collected images at a resolution of 1080 x 1920 pixels at 30 frames per second and 401 ppi with a typical contrast ratio of 1300:1 for at least 8 seconds. The pixel size was 1.2 microns and the videos in .mp4 or .mov format. Videos were converted to .avi format using Any Video Converter (version 6.06, http://www.anvsoft.com/any-video-converter-free, Ultimate Media Solutions, AnvSoft Inc). These files were uncompressed using VirtualDub (version 1.10.2, http://www.virtualdub.org/).
Images were analyzed using the MTrackJ plug in (version 1.5.1, https://imagescience.org/meijering/software/mtrackj/) for ImageJ (1.51K, https://fiji.sc/). Briefly, files were imported as uncompressed .avi files, converted to greyscale and saved as .TIFF files. Each image was calibrated by measuring a representative sperm head (acrosomal apex to midpiece) using the Straight Edge Tool, using 5.18 microns as the standard length of a Macaca mulatta sperm head. Approximately 50 sperm per video were manually tracked for the entire length of the track and the mean curvilinear velocity of each track calculated using the MEASURE function. Tracks used in the final analysis were a minimum of 0.4 seconds.
Prior to infusion of EP055, each male was sedated with ketamine by the surgical staff at ONPRC and transported to the operating room. After positioning in dorsal recumbency, the male was intubated and placed under inhalant (isoflurane) anesthesia. Bilateral intravenous catheters were placed in cephalic veins, one for infusion and one for back-up. A percutaneous arterial line was placed in the right femoral artery for direct blood pressure measurement. Invasive blood pressure, heart rate, SpO2, and respirations were monitored by the surgical staff throughout the procedure. Initially, the low doses of EP055 in 5% DMSO-PBS 7.6 was infused by i.v. at 75-80 mg/kg, using a Medfusion 3500 pump (Smiths Medical, St. Paul, MN), and was started at a low flow rate (0.6mg/kg/min). In 3 of 4 males, a 5-10% increase in blood pressure and heart rate were noted within the first 2-3 minutes of infusion of EP055. […]

[1] = male 28106, high dose 125–130 mg/kg, 6 hrs post-iv
[2] = male 28106, high dose 125–130 mg/kg, 30 hrs post-iv
[3] = male 28106, high dose 125–130 mg/kg, 78 hrs post-iv
[4] = male 28106, high dose 125–130 mg/kg, 318 hrs post-iv
[5] = male 28106, high dose 125–130 mg/kg, 390 hrs post-iv
[6] = male 28106, high dose 125–130 mg/kg, 558 hrs post-iv
[7] = male 28106, high dose 125–130 mg/kg, 894 hrs post-iv
[8] = male 28106, low dose 75–80 mg/kg, 6 hrs post-iv
[9] = male 28106, low dose 75–80 mg/kg, 30 hrs post-iv
[10] = male 28106, low dose 75–80 mg/kg, 78 hrs post-iv
[11] = male 28106, low dose 75–80 mg/kg, 342 hrs post-iv
[12] = male 28187, high dose 125–130 mg/kg, 8 hrs post-iv
[13] = male 28187, high dose 125–130 mg/kg, 30 hrs post-iv
[14] = male 28187, high dose 125–130 mg/kg, 78 hrs post-iv
[15] = male 28187, high dose 125–130 mg/kg, 414 hrs post-iv
[16] = male 28187, low dose 75–80 mg/kg, 6 hrs post-iv
[17] = male 28187, low dose 75–80 mg/kg, 30 hrs post-iv
[18] = male 28187, low dose 75–80 mg/kg, 78 hrs post-iv
[19] = male 28187, low dose 75–80 mg/kg, 582 hrs post-iv
[20] = male 28187, low dose 75–80 mg/kg, 678 hrs post-iv

Structure (SMILES): COC(=O)NNc1nc(Nc2ccc(NC(C)=O)c(O)c2)nc(SCC(=O)O)n1 [EP055]
- F2 [1]: 25%
- Static [1]: 20%
- VCL ± SEM [1]: 72.8 ± 4.8 um/sec
- Clumps [2]: Yes
- F1 [2]: 20%
- F2 [2]: 5%
- Static [2]: 75%
- VCL ± SEM [2]: 67.5 ± 7.9 um/sec
- Clumps [3]: Yes
- F1 [3]: 15%
- F2 [3]: 20%
- F3+F4 [3]: 10%
- Static [3]: 55%
- VCL ± SEM [3]: 80.3 ± 6.9 um/sec
- Clumps [4]: Yes
- F1 [4]: 30%
- F2 [4]: 20%
- F3+F4 [4]: 25%
- Static [4]: 25%
- Clumps [5]: Yes
- F1 [5]: 15%
- F2 [5]: 10%
- F3+F4 [5]: 50%
- Static [5]: 25%
- Clumps [6]: Yes
- F1 [6]: 15%
- F2 [6]: 40%
- F3+F4 [6]: 15%
- Static [6]: 30%
- F1 [7]: 2%
- F3+F4 [7]: 78%
- Static [7]: 20%
- VCL ± SEM [7]: 101.7 ± 4.1 um/sec
- Clumps [8]: Yes
- F1 [8]: 20%
- F3+F4 [8]: 50%
- Static [8]: 30%
- VCL ± SEM [8]: 135.8 ± 6.8 um/sec
- Clumps [9]: Yes
- F1 [9]: 25%
- F2 [9]: 45%
- F3+F4 [9]: 5%
- Static [9]: 25%
- VCL ± SEM [9]: 105.1 ± 7.0 um/sec
- Clumps [10]: Yes
- F1 [10]: 30%
- F2 [10]: 40%
- Static [10]: 30%
- VCL ± SEM [10]: 89.7 ± 6.3 um/sec
- F1 [11]: 5%
- F3+F4 [11]: 80%
- Static [11]: 15%
- VCL ± SEM [11]: 105.0 ± 5.8 um/sec
- Clumps [12]: Yes
- F1 [12]: 10%
- F2 [12]: 50%
- F3+F4 [12]: 30%
- Static [12]: 10%
- VCL ± SEM [12]: 52.9 ± 3.0 um/sec
- Clumps [13]: Yes
- F1 [13]: 10%
- F2 [13]: 80%
- Static [13]: 10%
- VCL ± SEM [13]: 40.5 ± 2.7 um/sec
- Clumps [14]: Fewer
- F1 [14]: 95%
- Static [14]: 5%
- VCL ± SEM [14]: 25.4 ± 2.6 um/sec
- Clumps [15]: Few
- F1 [15]: 10%
- F3+F4 [15]: 85%
- Static [15]: 5%
- VCL ± SEM [15]: 87.3 ± 6.2 um/sec
- Clumps [16]: Few
- F1 [16]: 35%
- F3+F4 [16]: 65%
- Clumps [17]: Yes
- F3+F4 [17]: 10%
- Static [17]: 90%
- Clumps [18]: Yes
- F1 [18]: 95%
- F3+F4 [18]: 5%
- F1 [19]: 95%
- F3+F4 [19]: 5%
- F3+F4 [20]: 80%
- Static [20]: 20%
- VCL ± SEM [20]: 109.4 ± 13.8 um/sec
- sperm clumping (post-infusion): severe sperm clumping
- potential contraceptive window following administration (rhesus): 24 to 48 h
- time necessary for sperm velocity to recover completely (rhesus): more than 3 weeks

Reference: article PMC5908160, “Inhibition of sperm motility in male macaques with EP055, a potential non-hormonal male contraceptive” (PLoS ONE, 2018)
